Values belong to the compound of their own block, whether it stands above or below them.
Experiments:
lymphoblasts = experiment: Propidium iodide staining of lymphoblasts treated with GCT siRNA, with or without etoposide; assay type: cell-based, human
Method: Propidium iodide (PI) staining. Lymphoblasts (treated with GCT siRNA vs. control siRNA) were treated vs. not treated with etoposide and stained with propidium iodide (PI). The percentage of PI positive cells was counted in each.

CLN3 knockdown NT2 cells [1] = experiment: Cell proliferation rate in CLN3 knockdown NT2 cells, Trypan blue dye exclusion; assay type: cell-based, human; details: NT2 cells, 3 days post-transfection, vs WT-NT2
Method: (§1) Cell Culture and Cell Treatment. NT2 neuronal precursor cells (ATCC cat no. CRL 1973) were grown in DMEM supplemented with 1% sodium pyruvate, L-glutamine and antibiotics and incubated in 37 C and 5% CO2 for 3 days.
(§2) siRNA knockdown of CLN3 in NT2 cells. HS1 siRNA ([…]) for CLN3 knockdown was designed using BLOCK-iT RNA™ Designer (Invitrogen). […] siRNA and scrambled universal negative control siRNA oligonucleotides were transfected into wild type NT2 cells using Lipofectamine RNAiMax™ according to manufacturer's protocol. In brief, […] HS1 RNAi duplex or scrambled siRNA universal negative control were diluted in 50 μl DMEM medium without serum. Lipofectamine™ RNAiMAX was mixed gently before use, then 1 μl was diluted in 50 μl DMEM medium. The diluted RNAi duplexes were combined with the diluted Lipofectamine RNAiMAX and incubated for 10 minutes at room temperature. The RNAi duplex-Lipofectamine™ RNAiMAX complexes were added to cells for a final RNA concentration of 10 nM. […]
Determination of cell proliferation rate in CLN3 knockdown NT2 cells. 4×10^5 cells transfected with CLN3 siRNA or scrambled siRNA, and treated or not treated with 50 ng/ml GalCer, were seeded and counted with Trypan blue dye exclusion. […]
NT2 cell proliferation and apoptosis rates. An equal number of NT2 cells was initially seeded and cell number determined at different time points with Trypan blue dye exclusion. […]

CLN3 knockdown NT2 cells [2] = experiment: Cell apoptosis rate in CLN3 knockdown NT2 cells, propidium iodide; assay type: cell-based, human; details: NT2 cells, 3 days post-transfection, vs wild type
Method: as §1
as §2, with “temperature.” for “temperature. The RNAi duplex-Lipofectamine™ RNAiMAX complexes were added to cells for a final RNA concentration of 10 nM.”
Determination of cell apoptosis rate in CLN3 knockdown NT2 cells. 10^6 cells transfected with CLN3 siRNA or scrambled siRNA, either treated with 50 ng/ml of GalCer (Avanti Polar Lipids, inc.) or solvent, are suspended in 100 μl PBS, incubated with 100 μl/0.5 mg/ml PI, washed, placed on slides and viewed using a fluorescence microscope. […] Cells in three fields of vision were counted. Percentage of red staining-apoptotic cells/total cells was determined.

CLN3 transcript = experiment: Real-Time PCR validation of CLN3 knockdown in NT2 cells; assay type: cell-based, human; details: 3 days post-transfection, vs scrambled siRNA
Method: siRNA knockdown of CLN3 in NT2 cells. HS1 siRNA ([…]) for CLN3 knockdown was designed using BLOCK-iT RNA™ Designer (Invitrogen). […] siRNA and scrambled universal negative control siRNA oligonucleotides were transfected into wild type NT2 cells using Lipofectamine RNAiMax™ according to manufacturer's protocol. In brief, […] HS1 RNAi duplex or scrambled siRNA universal negative control were diluted in 50 μl DMEM medium without serum. Lipofectamine™ RNAiMAX was mixed gently before use, then 1 μl was diluted in 50 μl DMEM medium. The diluted RNAi duplexes were combined with the diluted Lipofectamine RNAiMAX and incubated for 10 minutes at room temperature. The RNAi duplex-Lipofectamine™ RNAiMAX complexes were added to cells for a final RNA concentration of 10 nM. Cells were harvested 96 hours post-transfection.
Real-Time PCR validation of CLN3 knockdown. To calculate the effect of CLN3 knockdown following siRNA transfection, RNA from NT2 cells, transfected either with CLN3 siRNA or with scrambled siRNA, was isolated using Trizol reagent (Invitrogen). Reverse transcription was carried out with SuperScript III First-Strand-Synthesis System (Invitrogen). Real Time-PCR was conducted on 500 ng cDNA using /SYBRGreen 10 Mix (Biorad, U.S.A) in a Biorad I-Cycler. […] To confirm CLN3 knockdown, change in fold expression compared to scrambled siRNA transfected control cells was calculated. […]

CLN8 protein = experiment: Protein-lipid overlay assay, CLN8 protein; assay type: binding; details: lysates from normal cells, custom made sphingostrips
Method: (§3) Protein-lipid overlay assay. Membrane arrays (SPHINGOSTRIPS (Echelon Research Laboratories, Salt Lake City, Utah), or lipids were spotted on nitrocellulose membranes and dried for at least one hour. Membranes were blocked with 3% (wt/vol) Fatty Acid Free or FFA-BSA (Sigma-Aldrich, St. Louis, Mo.) in Tris-Buffered Saline Tween-20 (TBST) [150 mM NaCl/10 mM Tris.HCl (pH 8.0), and 0.1% (vol/vol) Tween-20] for 1 h at RT. Blocked membranes were incubated for 8 h at 4° C. with 2 mg/ml of total cell lysate.
(§4) Fibroblasts overexpressing CLN3p (AC1 cells) and JNCL fibroblasts were used for the GalCer-CLN3 binding assay. The membranes were then washed five times for 5 min each with TBST. After washing, membranes were incubated with anti-CLN3, CLN1, CLN2, CLN6 or CLN8-antibodies overnight at 1:1000 dilution, followed by additional washing and incubation with horseradish peroxidase-conjugated anti-rabbit IgG goat antibody for 1 h at RT. After a final washing, enhanced chemiluminescence was used to detect binding of NCL proteins to sphingolipids. Intensity values were computed with an ImageJ software program.
(§5) CLN1, CLN2, CLN6, CLN8 and CLN9 proteins also bind to lipids. […]

CLN6 protein = target: T1, CLN6 protein (Homo sapiens, UniProt Q9NWW5); experiment: Protein-lipid overlay assay, CLN6 protein; assay type: binding; details: lysates from normal cells, custom made sphingostrips
T1 construct: endogenous in cells
T1 sequence (Q9NWW5 1-311): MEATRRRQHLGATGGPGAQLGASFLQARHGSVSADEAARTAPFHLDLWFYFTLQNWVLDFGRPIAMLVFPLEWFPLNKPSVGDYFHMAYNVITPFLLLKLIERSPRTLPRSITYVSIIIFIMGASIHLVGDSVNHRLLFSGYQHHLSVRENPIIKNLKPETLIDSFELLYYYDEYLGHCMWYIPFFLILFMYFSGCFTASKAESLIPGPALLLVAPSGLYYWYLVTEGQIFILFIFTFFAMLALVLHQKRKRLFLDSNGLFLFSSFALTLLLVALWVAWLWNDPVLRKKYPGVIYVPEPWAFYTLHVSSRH
Method: as §3, §4
CLN1, CLN2, CLN6, CLN8 and CLN9 proteins also bind to lipids. The protein-lipid overlay assay, using custom made sphingostrips, lysates from normal cells and anti-CLN1, anti-CLN2-, anti-CLN6, and anti-CLN8-antibodies, established that CLN6 and CLN8 proteins bind to GalCer, CLN1, CLN2 and CLN6p bind lysophosphatidic acid (LPA) and sulfatide, and CLN8p binds ceramide (FIG. 5).

CLN1 protein = target: T2, CLN1 protein (Homo sapiens, UniProt P50897); experiment: Protein-lipid overlay assay, CLN1 protein; assay type: binding; details: lysates from normal cells, custom made sphingostrips
T2 construct: endogenous in cells
T2 sequence (P50897 28-306): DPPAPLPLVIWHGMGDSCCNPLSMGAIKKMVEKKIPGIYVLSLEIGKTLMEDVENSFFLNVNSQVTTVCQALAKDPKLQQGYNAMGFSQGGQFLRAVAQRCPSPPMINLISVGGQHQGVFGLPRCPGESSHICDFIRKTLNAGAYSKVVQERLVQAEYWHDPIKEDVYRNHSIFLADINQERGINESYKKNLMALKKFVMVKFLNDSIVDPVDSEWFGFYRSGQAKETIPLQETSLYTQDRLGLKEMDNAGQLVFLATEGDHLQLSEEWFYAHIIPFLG
Method: as §3, §4, §5

CLN2 protein = target: T3, CLN2 protein (Homo sapiens, UniProt O14773); experiment: Protein-lipid overlay assay, CLN2 protein; assay type: binding; details: lysates from normal cells, custom made sphingostrips
T3 construct: endogenous in cells
T3 sequence (O14773 196-563): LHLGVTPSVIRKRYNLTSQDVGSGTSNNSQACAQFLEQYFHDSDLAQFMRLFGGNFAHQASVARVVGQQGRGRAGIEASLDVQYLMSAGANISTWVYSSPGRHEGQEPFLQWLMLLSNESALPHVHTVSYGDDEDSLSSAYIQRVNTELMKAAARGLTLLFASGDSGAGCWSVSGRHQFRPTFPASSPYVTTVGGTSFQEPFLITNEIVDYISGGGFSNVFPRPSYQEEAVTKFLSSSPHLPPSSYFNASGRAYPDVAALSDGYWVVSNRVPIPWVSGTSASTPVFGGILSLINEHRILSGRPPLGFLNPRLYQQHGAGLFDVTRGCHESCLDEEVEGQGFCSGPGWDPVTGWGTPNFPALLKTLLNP
Method: as §3, §4, §5

wild-type CLN3p = target: T4, wild-type CLN3p (Homo sapiens, UniProt Q13286); experiment: Protein-lipid overlay assay, wild-type CLN3p; assay type: binding; details: lysate of CLN3-overexpressing cells, anti-CLN3 antibody
T4 construct: expressed in transfected cells; host or cells: fibroblasts overexpressing CLN3p (AC1 cells)
T4 sequence (Q13286 1-438): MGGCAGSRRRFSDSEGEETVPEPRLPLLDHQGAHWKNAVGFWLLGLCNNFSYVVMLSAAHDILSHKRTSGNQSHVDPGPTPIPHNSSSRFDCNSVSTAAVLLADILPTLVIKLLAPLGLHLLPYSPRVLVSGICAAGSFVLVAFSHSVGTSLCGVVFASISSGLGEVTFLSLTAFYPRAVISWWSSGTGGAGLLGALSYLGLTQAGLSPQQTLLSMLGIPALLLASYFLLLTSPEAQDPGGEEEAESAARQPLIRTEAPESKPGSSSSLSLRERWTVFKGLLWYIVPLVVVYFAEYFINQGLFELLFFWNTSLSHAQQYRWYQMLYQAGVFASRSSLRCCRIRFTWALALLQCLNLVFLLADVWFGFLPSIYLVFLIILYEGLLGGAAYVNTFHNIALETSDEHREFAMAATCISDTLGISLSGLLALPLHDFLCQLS
Method: as §3, §4
Binding of CLN3 to GalCer and sulfatide. Membranes impregnated with sphingolipids were overlaid with protein cell lysates from CLN3-overexpressing and JNCL cells. Anti-CLN3 antibody was used to evaluate binding. […] The signal for GalCer-wild-type CLN3p binding was weaker because the more polar sulfatide competes with the less polar GalCer for binding to wild-type CLN3p.

mutant CLN3p = experiment: Protein-lipid overlay assay, mutant CLN3p (JNCL cell lysate); assay type: binding, human; details: lysate of JNCL cells, anti-CLN3 antibody
Method: as §3, §4
Binding of CLN3 to GalCer and sulfatide. Membranes impregnated with sphingolipids were overlaid with protein cell lysates from CLN3-overexpressing and JNCL cells. Anti-CLN3 antibody was used to evaluate binding. […]

Compound: COc1cc([C@@H]2c3cc4c(cc3[C@@H](O[C@@H]3O[C@@H]5CO[C@@H](C)O[C@H]5[C@H](O)[C@H]3O)[C@H]3COC(=O)[C@H]23)OCO4)cc(OC)c1O [Etoposide, etoposide]
effect of etoposide on apoptosis of GCT knockdown cells (lymphoblasts): augmented the effect of reduced GalCer on apoptosis

Compound: HS1: HS1 siRNA (TCACGATTTGACTGCAACTCTG) for CLN3 knockdown (listed as DNA, chemistry not given here) [reference compound]
decrease in growth (CLN3 knockdown NT2 cells [1]): 58%
increase in apoptosis (CLN3 knockdown NT2 cells [2]): 2.4 fold
decrease in CLN3 expression (CLN3 transcript): 22 fold

binding of CLN8 protein to lipid (CLN8 protein): binds
Compound: ceramide

binding of CLN6 protein to lipid (CLN6 protein): bind
binding of CLN1 protein to lipid (CLN1 protein): bind
binding of CLN2 protein to lipid (CLN2 protein): bind
Compound: lysophosphatidic acid

Compound: sulfatide
binding of CLN6 protein to lipid (CLN6 protein): bind
binding of CLN1 protein to lipid (CLN1 protein): bind
binding of wild-type CLN3p to membrane spots impregnated with the lipid (wild-type CLN3p): bind strongly
binding of mutant CLN3 to membrane spots impregnated with the lipid (mutant CLN3p): failed to do so
binding of CLN2 protein to lipid (CLN2 protein): bind
